Results from patent US4673671A, “Method for improving the absorption and effectiveness of a catecholamine compound” (SIMES Societa Italiana Medicinali e Sintetici S.p.A., priority 1984, dated 1987).

How the values were obtained:
blood pressure = assay: Blood pressure in spontaneous hypertensive rats, oral administration; assay type: in vivo, rat
Excerpt: N,N-di-n-propyldopamine 4-O-dihydrogenphosphate reduced blood pressure by 30-35% (p<0.01) when orally administered to spontaneous hypertensive rats at a dose of 0.29 mmoles/kg; the effect lasted five hours while N,N-di-n-propyl dopamine was ineffective at the same dosage and also at 0.58 mmoles/kg.

[1] = test system: renal blood flow and renal vascular resistances; assay: Cardiovascular parameters (renal blood flow and renal vascular resistances) in anesthetized dogs, intraduodenal administration; assay type: in vivo, dog; conditions: for renal vasodilating effect (in words): comparison of N-methyldopamine 4-O-dihydrogenphosphate with N-methyldopamine; for selectivity and duration of renal effect (in words) / duration of effects on renal blood flow and resistances: 5 mg/kg
Experimental: The activity of N-methyldopamine 4-O-dihydrogenphosphate on cardiovascular parameters in anesthetized dogs was compared with that of N-methyldopamine; both compounds were administered by intraduodenal route.

urine excretion = assay: Urine excretion in normally hydrated rats, oral administration; assay type: in vivo, rat; conditions: 0.29 mmoles/kg; for increase of urine excretion: p<0.05
Excerpt: These diuretic properties are useful in the therapy of hypertension and cardiac and renal failure.

[2] = anesthetized dogs, i.d., 0.035 mmoles/kg (7.1 mg/kg), n=5
[3] = anesthetized dogs, i.d., 0.005 mmoles/kg (1.25 mg/kg), n=6
[4] = anesthetized dogs, i.d., 0.04 mmoles/kg (10 mg/kg), n=7, **P <0.01

Q: `CCCN(CCC)CCc1ccc(OP(=O)(O)O)c(O)c1` [N,N-di-n-propyldopamine 4-O-dihydrogenphosphate] was tested. Which “duration of blood pressure reduction” value (blood pressure; 0.29 mmoles/kg) did it give?
A: Its value is “five”.

Q: And the “reduction of blood pressure” value (blood pressure; 0.29 mmoles/kg, p<0.01)?
A: Its value is 30-35%.

Q: What does the source list for `CCCN(CCC)CCc1ccc(O)c(O)c1` [N,N-di-n-propyl dopamine, N,N-di-n-propyldopamine, reference compound]?
A: effect on blood pressure (in words) (blood pressure; 0.29 mmoles/kg): ineffective; effect on blood pressure (in words) (blood pressure; 0.58 mmoles/kg): ineffective

Q: With `CNCCc1ccc(O)c(O)c1` [N-methyldopamine, reference compound] as the compound, how does the “accompanying effect on blood pressure” value ([1]; anesthetized dogs, i.d.) read?
A: Its value is “undesired increase of blood pressure”.

Q: What about the “accompanying effect on the heart” value ([1]; anesthetized dogs, i.d.) of the same compound?
A: Its value is “stimulation of the heart”.

Q: And the “duration of renal vasodilating action” value ([1]; anesthetized dogs, i.d.)?
A: The value was “two”.

Q: And the “Maximum percentage variation of renal blood flow” value [1, 2]?
A: The value was “+14.9%”.

Q: What about the “Maximum percentage variation of renal vascular resistances” value [1, 2] of the same compound?
A: The value was -14%.

Q: And the “renal vasodilating effect (in words)” value ([1]; anesthetized dogs, i.d.)?
A: The value was “smaller effect”.

Q: And the “effect on urine excretion (in words)” value (urine excretion)?
A: The value was “ineffective”.

Q: `N[C@@H](CCC(=O)NCCc1ccc(OP(=O)(O)O)c(O)c1)C(=O)O` [N^5-[2-(3,4-dihydroxyphenyl)-ethyl]-L-glutamine 4-O-dihydrogenphosphate] was tested. Which “selectivity and duration of renal effect (in words)” value [1] did it give?
A: Its value is “selective and long lasting”.

Q: What about the “decrease in renal resistances” value ([1]; 5 mg/kg (0.014 mmoles/kg)) of the same compound?
A: Its value is -18%.

Q: What about the “increase in renal blood flow” value ([1]; 5 mg/kg (0.014 mmoles/kg)) of the same compound?
A: Its value is “+25%”.

Q: For `CNCCc1ccc(O)c(OP(=O)(O)O)c1` [N-methyldopamine 3-O-dihydrogenphosphate], which “increase of urine excretion” value (urine excretion) is on record?
A: The value was 180%.

Q: How did the “selectivity and duration of renal effect (in words)” value [1] turn out when `NCCc1ccc(OP(=O)(O)O)c(O)c1` [Dopamine 4-O-dihydrogenphosphate, dopamine 4-O-dihydrogenphosphate] was run?
A: The value was “selective and long lasting”.

Q: What about the “decrease in renal resistances” value ([1]; 5 mg/kg (0.02 mmoles/kg)) of the same compound?
A: Its value is -15%.

Q: And the “increase in renal blood flow” value ([1]; 5 mg/kg (0.02 mmoles/kg))?
A: Its value is “+14.5%”.

Q: Which “effect on renal blood flow and renal resistances (in words)” value ([1]; 10 mg/kg (0.053 mmoles/kg)) does the source give for `NCCc1ccc(O)c(O)c1` [dopamine, 1-(3,4-dihydroxyphenyl)-2-amino-ethane, reference compound] here?
A: The value was “ineffective”.

Q: Which results are given for `CNCCc1ccc(OP(=O)(O)OC)c(O)c1` [N-methyldopamine 4-O-methylhydrogenphosphate]?
A: duration of effects on renal blood flow and resistances [1]: over 5 hours; increase of renal blood flow ([1]; 5 mg/kg (0.019 mmole/kg)): +26%; reduction of renal resistances ([1]; 5 mg/kg (0.019 mmole/kg)): -19%

Q: `CNCCc1ccc(OP(=O)(O)O)c(O)c1` [N-methyldopamine 4-O-dihydrogenphosphate] was tested. Which “duration of renal vasodilating action” value ([1]; anesthetized dogs, i.d.) did it give?
A: Its value is “about four”.

Q: And the “modification of other hemodynamic parameters” value ([1]; anesthetized dogs, i.d.)?
A: The value was “without any modification of other hemodynamic parameters”.

Q: What about the “Maximum percentage variation of renal blood flow” value [1, 3] of the same compound?
A: Its value is “+14.2%”.

Q: And the “Maximum percentage variation of renal vascular resistances” value [1, 3]?
A: The value was -11.2%.

Q: What about the “Maximum percentage variation of renal vascular resistances” value ([1]; anesthetized dogs, i.d., 0.01 mmoles/kg (2.5 mg/kg), n=6) of the same compound?
A: Its value is -14.1%.

Q: And the “Maximum percentage variation of renal blood flow” value ([1]; anesthetized dogs, i.d., 0.01 mmoles/kg (2.5 mg/kg), n=6, **P <0.01)?
A: The value was “+18.5%”.

Q: And the “Maximum percentage variation of renal blood flow” value ([1]; anesthetized dogs, i.d., 0.02 mmoles/kg (5 mg/kg), n=7, **P <0.01)?
A: The value was “+36.4%”.

Q: And the “Maximum percentage variation of renal vascular resistances” value ([1]; anesthetized dogs, i.d., 0.02 mmoles/kg (5 mg/kg), n=7, *P <0.05)?
A: The value was -24.5%.

Q: What about the “Maximum percentage variation of renal blood flow” value [1, 4] of the same compound?
A: Its value is “+31.7%”.

Q: And the “Maximum percentage variation of renal vascular resistances” value [1, 4]?
A: Its value is -28.1%.

Q: What about the “renal vasodilating effect (in words)” value ([1]; anesthetized dogs, i.d.) of the same compound?
A: The value was “improved effectiveness, either in terms of activity or duration of action or selective renal vasodilating action”.

Q: And the absorption ([1]; i.d., compared with N-methyldopamine)?
A: The absorption was “improved absorption”.

Q: And the “increase of urine excretion” value (urine excretion)?
A: The value was 170%.

Q: Which “duration of effects on renal blood flow and resistances” value [1] does the source give for `CCOP(=O)(O)Oc1ccc(CCNC)cc1O` [N-methyldopamine 4-O-ethyl-hydrogenphosphate] here?
A: The value was “over 5 hours”.

Q: And the “increase of renal blood flow” value ([1]; 5 mg/kg (0.018 mmoles/kg))?
A: Its value is “+46%”.

Q: And the “reduction of renal resistances” value ([1]; 5 mg/kg (0.018 mmoles/kg))?
A: Its value is -32%.
